We go through one compound from article PMC12475274, “Harnessing indole scaffolds to identify small-molecule IRE1α inhibitors modulating XBP1 mRNA splicing” (Nature Communications, 2025).

The structures appear in SMILES notation. Several values for one entry are separate records, joined by “and”; a condition that tells them apart may be missing. Equal entries are not always repeated.

What all share (type): cell-based, human
What all share (conditions): in % (unit assumed)

Data set [1] deals with A549 cells. As to the kind of experiment: Cell viability assay (CCK-8), A549. More on the design: key to A549 viability: % viability vs DMSO-treated cells, blank-corrected A450. How it is done: (§1) Cells were collected and seeded into 96-well plates at a density of 2000–4000 cells per well and cultured overnight to allow cells to adhere. After adherence, cells were treated with the indicated compounds for 72 h. Then 20 μL CCK-8 solution (Vazyme, A311) was added into each well and incubated at 37 °C for 2–4 h. Absorbance was detected at a wavelength of 450 nm using a TECAN plate reader. Cell viability was calculated with the equation: Cell viability (%) = 100(Absorbance of treated cell - Absorbance of Blank control)/ (Absorbance of DMSO-treated cells - Absorbance of Blank control); Blank control: medium and CCK-8 solution, no cells.

The subject of data set [2] is MDA-MB-468 cells. The experiment in a line: Cell viability assay (CCK-8), MDA-MB-468. The arrangement: key to MDMB-468 viability: % viability vs DMSO-treated cells, blank-corrected A450. The procedure: as §1
The subject of data set [3] is HCT 116 cells. As to the kind of experiment: Cell viability assay (CCK-8), HCT 116. The arrangement: key to HCT 116 viability: % viability vs DMSO-treated cells, blank-corrected A450. The procedure: as §1
The test system of data set [4] is HT-29 cells. The experiment in a line: Cell viability assay (CCK-8), HT-29. The arrangement: key to HT-29 viability: % viability vs DMSO-treated cells, blank-corrected A450. How it is done:
as §1

On to `Cc1c(CCC(=O)O)c2cc(Br)ccc2n1C(=O)c1ccccc1` [Compound 107], for which the A549 viability is 99.758 and 114.080 and 100.963 in data set [1] (0.205761 μM); 103.947 and 108.835 and 105.037 in data set [1] (0.617284 μM); 103.339 and 113.208 and 107.080 in data set [1] (1.85185 μM); 100.390 and 102.432 and 108.606 in data set [1] (5.55556 μM); 111.429 and 90.004 and 98.703 in data set [1] (16.6667 μM); 105.990 and 95.489 and 98.817 in data set [1] (50 μM). For the same compound, the MDMB-468 viability is 101.311 and 95.140 and 93.231 in data set [2] (0.205761 μM); 100.675 and 92.658 and 100.039 in data set [2] (0.617284 μM); 97.239 and 104.174 and 86.869 in data set [2] (1.85185 μM); 97.876 and 87.887 and 96.349 in data set [2] (5.55556 μM); 85.214 and 82.224 and 83.624 in data set [2] (16.6667 μM); 81.333 and 82.288 and 84.260 in data set [2] (50 μM). In addition, the “HCT 116 viability” value was 102.833 and 101.904 and 103.547 in data set [3] (0.205761 μM); 105.053 and 111.700 and 97.075 in data set [3] (0.617284 μM); 98.142 and 107.837 and 106.069 in data set [3] (1.85185 μM); 107.561 and 110.157 and 105.065 in data set [3] (5.55556 μM); 99.383 and 99.772 and 101.528 in data set [3] (16.6667 μM); 89.136 and 87.455 and 94.529 in data set [3] (50 μM). Also, the HT-29 viability was 107.531 and 106.250 in data set [4] (0.205761 μM); 105.681 and 105.762 in data set [4] (0.617284 μM); 112.450 and 111.942 in data set [4] (1.85185 μM); 121.172 and 105.478 in data set [4] (5.55556 μM); 115.825 and 113.345 in data set [4] (16.6667 μM); 110.661 and 115.500 in data set [4] (50 μM).
